Columns and labels:
[1] = molecular target: ERRγ; settings: cited from earlier work
[2] = test system: ERRα; settings: cited from earlier work
[3] = test system: T98G glioma cell line; assay: MTS proliferation assay; type: cell-based; settings: Homo sapiens, 48 h, read-out: IC50 values T98G cell line
[4] = molecular target: T1, immobilized ERRα ligand binding domain (Homo sapiens, UniProt P11474); assay: Retention on the ERRα column; settings: data not shown
T1 sequence (P11474 193-421 limits assumed): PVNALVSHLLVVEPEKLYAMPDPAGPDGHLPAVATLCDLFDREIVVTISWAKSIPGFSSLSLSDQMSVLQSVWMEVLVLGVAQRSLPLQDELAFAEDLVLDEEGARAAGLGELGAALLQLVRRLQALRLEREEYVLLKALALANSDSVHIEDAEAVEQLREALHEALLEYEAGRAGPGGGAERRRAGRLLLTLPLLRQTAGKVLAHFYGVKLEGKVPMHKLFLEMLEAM

[5] = molecular target: T2, immobilized ERRγ ligand binding domain (Homo sapiens, UniProt P62508); assay: Non-linear chromatography
T2 sequence (P62508 233-457 limits assumed): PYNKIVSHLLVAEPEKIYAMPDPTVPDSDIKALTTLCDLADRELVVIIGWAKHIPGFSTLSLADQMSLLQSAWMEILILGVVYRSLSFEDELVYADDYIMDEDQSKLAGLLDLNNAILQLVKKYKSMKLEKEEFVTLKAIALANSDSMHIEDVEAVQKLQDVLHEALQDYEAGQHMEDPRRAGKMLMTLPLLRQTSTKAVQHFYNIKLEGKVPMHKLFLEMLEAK

IC50 [3] [µM]	specific retention on the ERRα column [4]	Kd [5] [µM]	Compound	Ki [1] [µM]	affinity for the ERRα [2]
14.5	not specifically retained		CC/C(=C(\c1ccc(O)cc1)c1ccc(OCCN(C)C)cc1)c1ccccc1 [4-hydroxy tamoxifen]	0.075	no affinity
3.4	not specifically retained	0.0432	CC/C(=C(\c1ccc(O)cc1)c1ccc(OCCNC)cc1)c1ccccc1 [Endoxifen]		no affinity
			CC/C(=C(\c1ccccc1)c1ccc(OCCN(C)C)cc1)c1ccccc1 [Tamoxifen]		no affinity
